The structures appear in SMILES notation. Read-outs that look alike come from different tables or passages of the source.

The target of one data set is Aurora-1 (Aurora B) (Homo sapiens, UniProt Q96GD4). Put plainly: Aurora-1 (Aurora B) inhibition assay (radiometric). The data set is classed as biochemical. On the procedure:
An assay buffer solution was prepared which consisted of 25 mM HEPES (pH 7.5), 10 mM MgCl2, 0.1% BSA and 10% glycerol. […] To 22 μL of the Aurora-B solution, in a 96-well plate, was added 2 μl of a compound stock solution in DMSO and the mixture allowed to equilibrate for 10 minutes at 25° C. The enzyme reaction was initiated by the addition of 16 μl stock [γ-^33P]-ATP solution (˜20 nCi/μL) prepared in assay buffer, to a final assay concentration of 800 μM. The reaction was stopped after 3 hours by the addition of 16 μL 500 mM phosphoric acid and the levels of ^33P incorporation into the peptide substrate were determined by the following method.
A phosphocellulose 96-well plate (Millipore, Cat no. MAPHNOB50) was pre-treated with 100 μL of a 100 mM phosphoric acid prior to the addition of the enzyme reaction mixture (40 μL). The solution was left to soak on to the phosphocellulose membrane for 30 minutes and the plate subsequently washed four times with 200 μL of a 100 mM phosphoric acid. […] Levels of non-enzyme catalyzed background radioactivity were determined by adding 16 μL of the 500 mM phosphoric acid to control wells, containing all assay components (which acts to denature the enzyme), prior to the addition of the [γ-^33P]-ATP solution. Levels of enzyme catalyzed ^33P incorporation were calculated by subtracting mean background counts from those measured at each inhibitor concentration. […] Ki values were calculated from initial rate data by non-linear regression using the Prism software package (Prism 3.0, Graphpad Software, San Diego, Calif.).

Data set [1] in a line: Microsomal stability assay. Format: in vitro ADME. As to conditions: 5 μM compound, 1 mg/mL liver microsome protein, 37° C., species not given. The method, then:
Microsomal stability was monitored by generation of depletion-time profiles in microsomes from a range of species (male CD-1 mouse, male Sprague-Dawley rat, male Beagle dog, male Cynomolgus monkey and pooled mixed gender human). Compound spiking solutions were made up by diluting down the compound stock solution in DMSO (typically 10 mM) to give a solution in acetonitrile (0.5 mM). […].
The reaction was initiated by the addition (250 μL) of the pre-incubated RGS to the pre-incubated microsome/VRT/PB mixture (pre-incubation in both instances was for 10 minutes at 37° C.). Samples were incubated within Eppendorf vials (1.5 ml) on a heater shaker (DPC Micromix 5 (settings; form 20, amplitude 4) modified to be heated, to 37° C., by two plate heaters fixed to the deck and controlled by a Packard Manual Heater) attached to a Multiprobe II HT Ex automated liquid handler. The liquid handler was programmed (WinPREP software) to sample the microsomal incubation mixture after 0, 2, 10, 30 and 60 minutes of incubation and transfer an aliquot (100 μL) to a stop block (96-well block) containing 100 μL of chilled methanol. The % organic in the stop mixture was optimized for analysis by addition of appropriate volumes of aqueous/organic (typically 100 μl of 50:50 methanol:water).
Prior to analysis the stop block was placed on a shaker (DPC Micromix 5; 10 min, form 20, amplitude 5) to precipitate out proteins. The block was then centrifuged (Jouan GR412; 2000 rpm, 15 min, 4° C.). A sample aliquot (200 μL) was then transferred to an analysis block and the block was centrifuged again (Jouan GR412; 2000 rpm, 5 min, 4° C.) prior to being sent for analysis. Depletion profiles were determined by monitoring the disappearance of VRT by liquid chromatography-tandem mass spectrometry (LC-MS/MS). Samples were injected (20 μL; Agilent 1100 liquid chromatographic system equipped with autosampler) onto an analytical column. Mobile phase consisted of Water+0.05% (v/v) formic acid (A) and methanol+0.05% (v/v) formic acid (B).
Running a gradient method optimized for the compound of interest carried out the compound elution from analytical column. The total run time was 6 minutes with a flow rate of 0.35 mL/min. The entire column effluent entered the electrospray ionization source (positive mode) of a Micromass Quattro LC tandem mass spectrometer between 0.5 and 5.9 min of the run. The mass spectrometry was optimized for the compound of interest. All incubations were conducted in duplicate and results were expressed as % parent remaining at either 30 minutes or 60 minutes relative to 0 minutes sample.
For orientation: Microsomes from liver hold many membrane-bound enzymes, among them those of drug oxidation.

The next data set concerns the target T1, FLT-3 (Homo sapiens, UniProt P36888).
T1 sequence (P36888 27-993): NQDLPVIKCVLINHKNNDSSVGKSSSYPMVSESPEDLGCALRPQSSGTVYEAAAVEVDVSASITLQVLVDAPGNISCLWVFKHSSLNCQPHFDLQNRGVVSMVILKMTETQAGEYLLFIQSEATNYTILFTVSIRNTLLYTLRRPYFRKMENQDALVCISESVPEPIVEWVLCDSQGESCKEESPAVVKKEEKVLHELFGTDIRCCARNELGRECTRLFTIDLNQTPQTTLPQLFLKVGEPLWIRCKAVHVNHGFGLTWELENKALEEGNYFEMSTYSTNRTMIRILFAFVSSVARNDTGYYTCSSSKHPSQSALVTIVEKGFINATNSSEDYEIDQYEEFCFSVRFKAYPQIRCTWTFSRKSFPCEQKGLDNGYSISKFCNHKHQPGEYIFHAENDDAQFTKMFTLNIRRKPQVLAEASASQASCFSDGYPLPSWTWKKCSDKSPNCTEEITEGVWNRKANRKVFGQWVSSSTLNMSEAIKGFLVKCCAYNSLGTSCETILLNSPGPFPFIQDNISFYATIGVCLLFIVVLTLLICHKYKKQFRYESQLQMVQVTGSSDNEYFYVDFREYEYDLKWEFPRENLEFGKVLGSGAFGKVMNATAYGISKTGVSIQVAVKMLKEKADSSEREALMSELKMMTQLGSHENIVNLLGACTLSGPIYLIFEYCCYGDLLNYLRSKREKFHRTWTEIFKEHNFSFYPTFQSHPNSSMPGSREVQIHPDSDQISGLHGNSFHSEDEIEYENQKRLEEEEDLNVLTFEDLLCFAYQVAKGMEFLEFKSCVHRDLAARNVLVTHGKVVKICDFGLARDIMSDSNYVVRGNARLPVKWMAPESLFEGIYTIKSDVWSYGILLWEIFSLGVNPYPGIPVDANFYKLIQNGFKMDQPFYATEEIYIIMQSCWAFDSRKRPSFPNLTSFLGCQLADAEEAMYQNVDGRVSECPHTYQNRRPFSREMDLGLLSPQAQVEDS
In words: FLT-3 inhibition assay, radiometric filter-binding. The data set is classed as biochemical. The method, then:
This assay monitors the 33P incorporation into a substrate poly(Glu, Tyr) 4:1 (pE4Y). […] Final substrate concentrations in the assay were 90 μM ATP and 0.5 mg/ml pE4Y (both from Sigma Chemicals, St Louis, Mo.). […] Reactions were carried out at room temperature.
Two assay solutions were prepared. Solution 1 contains 100 mM HEPES (pH 7.5), 10 mM MgCl2, 25 mM NaCl, 1 mg/ml pE4Y and […] (containing 0.3 mCi of [γ-33^P]ATP for each reaction). Solution 2 contains 100 mM HEPES (pH 7.5), 10 mM MgCl2, 25 mM NaCl, 2 mM DTT, 0.02% BSA and 3 nM FLT-3. The assay was run on a 96 well plate by mixing 50 μl each of Solution 1 and […] of the compounds of the present invention. The reaction was initiated with Solution 2. […] All of the reaction volume was then transferred to a filter plate and washed with 5% TCA by a Harvester 9600 from TOMTEC (Hamden, Conn.). The amount of ^33P incorporation into pE4y was analyzed by a Packard Top Count Microplate Scintillation Counter (Meriden, Conn.). The data was fitted using Prism software to get an IC50 or Ki.

Another data set deals with JAK-2 (Homo sapiens, UniProt O60674). In words: JAK2 inhibition assay. The data set is classed as biochemical. The settings on record: 12 μM ATP, 15 μM poly(Glu)4Tyr.
JAK-2, sequence (O60674 whole entry, species assumed, the tested form may be a part): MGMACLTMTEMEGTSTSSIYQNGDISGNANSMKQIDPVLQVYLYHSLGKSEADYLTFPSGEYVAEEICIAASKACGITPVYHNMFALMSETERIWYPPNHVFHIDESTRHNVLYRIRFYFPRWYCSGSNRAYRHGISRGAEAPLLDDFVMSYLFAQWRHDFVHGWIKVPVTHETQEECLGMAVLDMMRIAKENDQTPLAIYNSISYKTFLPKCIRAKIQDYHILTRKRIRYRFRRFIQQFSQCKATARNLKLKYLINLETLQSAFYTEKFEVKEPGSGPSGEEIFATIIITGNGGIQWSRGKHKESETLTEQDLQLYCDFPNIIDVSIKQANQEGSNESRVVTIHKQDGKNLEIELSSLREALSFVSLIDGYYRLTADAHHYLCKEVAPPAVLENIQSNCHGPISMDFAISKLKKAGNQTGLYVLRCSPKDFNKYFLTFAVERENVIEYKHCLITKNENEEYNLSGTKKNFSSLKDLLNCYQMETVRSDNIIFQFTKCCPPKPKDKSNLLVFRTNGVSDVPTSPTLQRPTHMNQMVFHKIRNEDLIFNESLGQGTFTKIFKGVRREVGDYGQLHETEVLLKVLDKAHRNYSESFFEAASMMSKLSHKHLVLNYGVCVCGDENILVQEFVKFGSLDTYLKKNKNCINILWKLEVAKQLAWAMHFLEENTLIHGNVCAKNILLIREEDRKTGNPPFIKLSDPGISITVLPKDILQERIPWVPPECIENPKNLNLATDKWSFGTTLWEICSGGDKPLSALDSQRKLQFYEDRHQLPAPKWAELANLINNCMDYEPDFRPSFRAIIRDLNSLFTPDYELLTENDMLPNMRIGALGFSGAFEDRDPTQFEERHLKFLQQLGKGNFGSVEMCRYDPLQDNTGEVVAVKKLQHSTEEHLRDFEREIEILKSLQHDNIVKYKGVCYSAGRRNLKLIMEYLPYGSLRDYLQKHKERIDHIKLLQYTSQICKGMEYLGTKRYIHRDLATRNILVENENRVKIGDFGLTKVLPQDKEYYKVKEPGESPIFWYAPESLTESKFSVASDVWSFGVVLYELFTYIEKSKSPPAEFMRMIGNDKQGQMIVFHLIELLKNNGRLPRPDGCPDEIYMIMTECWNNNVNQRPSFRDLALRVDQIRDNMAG
The target in data set [2] is N-terminally truncated Abl kinase. Put plainly: Abl kinase activity inhibition assay, coupled enzyme. The data set is classed as biochemical. As to conditions: read-out: Abl (wild) Ki; 110 μM ATP, 30° C., 21 nM Abl kinase. The method, then:
Final concentrations of the components of the coupled enzyme system were 2.5 mM phosphoenolpyruvate, 200 μM NADH, […] pyruvate kinase and 20 μg/ml lactate dehydrogenase.
An assay stock buffer solution was prepared containing all of the reagents listed above with the exception of ATP and the test compound of interest. […] Rates of reaction were obtained using a Molecular Devices Spectramax plate reader (Sunnyvale, Calif.) over 10 min at 30° C. The Ki values were determined from the residual rate data as a function of inhibitor concentration using nonlinear regression (Prism 3.0, Graphpad Software, San Diego, Calif.).

Another data set has as its target T2, Aurora-2 (Aurora A) (Homo sapiens, UniProt O14965).
T2 sequence (O14965 1-403): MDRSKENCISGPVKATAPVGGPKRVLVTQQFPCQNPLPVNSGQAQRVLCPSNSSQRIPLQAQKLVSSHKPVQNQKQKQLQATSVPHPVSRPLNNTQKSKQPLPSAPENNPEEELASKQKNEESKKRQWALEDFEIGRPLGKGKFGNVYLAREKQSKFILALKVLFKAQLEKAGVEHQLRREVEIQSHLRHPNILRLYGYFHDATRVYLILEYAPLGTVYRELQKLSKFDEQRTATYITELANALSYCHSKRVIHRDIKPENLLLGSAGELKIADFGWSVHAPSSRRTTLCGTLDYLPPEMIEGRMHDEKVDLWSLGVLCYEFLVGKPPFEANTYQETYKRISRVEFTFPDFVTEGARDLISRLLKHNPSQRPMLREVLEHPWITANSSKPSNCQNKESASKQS
Put plainly: Aurora-2 (Aurora A) inhibition assay, coupled enzyme. Format: biochemical. The method, then:
Assays were carried out in a mixture of 100 mM Hepes (pH7.5), 10 mM MgCl2, 1 mM DTT, 25 mM NaCl, 2.5 mM phosphoenolpyruvate, 300 μM NADH, 30 μg/ml pyruvate kinase and 10 μg/ml lactate dehydrogenase. […] Assays were carried out at 30° C. and in the presence of 40 nM Aurora-2.
An assay stock buffer solution was prepared containing all of the reagents listed above, with the exception of Aurora-2 and the test compound of interest. […] The plate was preincubated for 10 minutes at 30° C. and the reaction initiated by addition of 10 μl of Aurora-2. Initial reaction rates were determined with a Molecular Devices SpectraMax Plus plate reader over a 10 minute time course. IC50 and Ki data were calculated from non-linear regression analysis using the Prism software package (GraphPad Prism version 3.0cx for Macintosh, GraphPad Software, San Diego Calif., USA).

The mark [3] stands for this setting: 800 μM ATP, Kemptide, 25° C., read-out: Aurora B Ki.
[4] abbreviates: 400 μM ATP, 570 μM Kemptide, 30° C., 40 nM Aurora-2, read-out: Aurora A Ki.

Aurora-1 (Aurora B), sequence (Q96GD4 whole entry): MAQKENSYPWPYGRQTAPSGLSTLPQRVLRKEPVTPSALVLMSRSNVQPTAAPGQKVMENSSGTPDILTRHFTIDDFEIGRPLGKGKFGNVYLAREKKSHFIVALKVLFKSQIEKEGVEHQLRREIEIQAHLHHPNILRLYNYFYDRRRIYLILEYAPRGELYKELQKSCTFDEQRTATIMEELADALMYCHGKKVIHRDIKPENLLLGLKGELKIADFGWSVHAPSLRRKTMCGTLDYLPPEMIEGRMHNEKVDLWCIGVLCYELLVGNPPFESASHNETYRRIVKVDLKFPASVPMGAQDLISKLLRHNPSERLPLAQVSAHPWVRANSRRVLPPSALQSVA
N-terminally truncated Abl kinase, sequence (P00519 28-1130): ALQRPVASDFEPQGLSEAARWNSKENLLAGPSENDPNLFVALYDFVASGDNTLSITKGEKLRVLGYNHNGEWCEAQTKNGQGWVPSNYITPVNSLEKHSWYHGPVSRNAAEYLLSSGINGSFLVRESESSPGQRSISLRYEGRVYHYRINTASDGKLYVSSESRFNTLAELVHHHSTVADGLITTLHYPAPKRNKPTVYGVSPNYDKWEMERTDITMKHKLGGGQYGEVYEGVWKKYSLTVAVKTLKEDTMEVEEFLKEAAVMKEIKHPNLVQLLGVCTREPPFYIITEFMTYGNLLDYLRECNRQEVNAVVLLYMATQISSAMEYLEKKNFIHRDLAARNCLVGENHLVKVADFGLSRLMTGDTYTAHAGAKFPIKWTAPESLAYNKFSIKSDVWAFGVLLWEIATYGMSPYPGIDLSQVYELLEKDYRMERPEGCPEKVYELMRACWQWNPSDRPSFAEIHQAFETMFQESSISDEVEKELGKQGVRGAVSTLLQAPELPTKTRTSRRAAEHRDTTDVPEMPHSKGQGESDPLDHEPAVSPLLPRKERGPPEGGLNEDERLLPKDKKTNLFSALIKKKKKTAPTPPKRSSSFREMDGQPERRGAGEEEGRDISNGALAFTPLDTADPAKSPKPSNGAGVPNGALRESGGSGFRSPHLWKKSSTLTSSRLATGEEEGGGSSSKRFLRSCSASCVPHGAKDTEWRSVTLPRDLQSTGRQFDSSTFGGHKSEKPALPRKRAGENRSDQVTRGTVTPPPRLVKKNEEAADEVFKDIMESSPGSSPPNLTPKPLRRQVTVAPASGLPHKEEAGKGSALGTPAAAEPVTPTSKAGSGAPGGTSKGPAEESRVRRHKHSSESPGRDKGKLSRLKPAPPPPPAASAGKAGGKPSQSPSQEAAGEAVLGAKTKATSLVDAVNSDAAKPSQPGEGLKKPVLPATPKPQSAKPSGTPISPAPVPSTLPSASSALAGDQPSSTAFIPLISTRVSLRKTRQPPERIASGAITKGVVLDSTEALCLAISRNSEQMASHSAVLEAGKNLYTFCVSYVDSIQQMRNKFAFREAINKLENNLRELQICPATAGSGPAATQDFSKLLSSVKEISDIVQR

What is called Ki is a dissociation constant, usually derived from enzyme kinetics or from competition with a known ligand. Turning to `Cc1cc(Nc2cc(N3CCC3)nc(Sc3ccc(NC(=O)c4cccc(F)c4F)cc3)n2)[nH]n1` [Compound I-7], the Ki at Aurora-1 (Aurora B) (setting [3]) amounted to 5.1 nM; at FLT-3 (90 μM ATP, 0.5 mg/ml pE4Y, room temperature, read-out: FLT-3 Ki), 250 nM; at JAK-2, 41 nM; in data set [2] it was 35 nM. Further, in data set [1], the “Microsomal Stability (% remaining after 30 min.)” value is 102%. Besides, the “Microsomal Stability (% remaining after 60 min.)” value in data set [1] amounted to 69%.

As for `Cc1cc(Nc2cc(N3CCC3)nc(Sc3ccc(NC(=O)c4cccc(Cl)c4Cl)cc3)n2)n[nH]1` [Compound I-9], the Ki on Aurora-2 (Aurora A) is 0.85 nM; at Aurora-1 (Aurora B), 6.5 nM. Besides, the “Microsomal Stability (% remaining after 60 min.)” value in data set [1] came to 69%.

Take `Cc1cc(Nc2cc(N3CCC3)nc(Sc3ccc(NC(=O)c4cc(F)ccc4F)cc3)n2)[nH]n1` [Compound I-10]: the values for the Ki at Aurora-2 (Aurora A) (setting [4]) and on Aurora-1 (Aurora B) (setting [3]) were 1.8 nM and under 25 nM, respectively.

Turning to `CCc1cc(Nc2cc(N3CCC3)nc(Sc3ccc(NC(=O)c4ccccc4Cl)cc3)n2)n[nH]1` [Compound I-16], the results for the Ki on Aurora-2 (Aurora A), at Aurora-1 (Aurora B) and at JAK-2 were 0.56 nM, 7.5 nM and 440 nM, respectively. The “Microsomal Stability (% remaining after 30 min.)” value in data set [1] is recorded as 91%. In addition, in data set [1], the “Microsomal Stability (% remaining after 60 min.)” value turned out to be 63%.

Take `COc1cccc(C(=O)Nc2ccc(Sc3nc(Nc4cc(C)n[nH]4)cc(N4CCC4)n3)cc2)c1` [Compound I-18]: the Ki on Aurora-2 (Aurora A) (setting [4]) was 0.6 nM; at Aurora-1 (Aurora B) (setting [3]) it was 8 nM; at JAK-2, 63 nM. In addition, the “Microsomal Stability (% remaining after 30 min.)” value in data set [1] was determined as 89%. Moreover, in data set [1], the “Microsomal Stability (% remaining after 60 min.)” value is 58%.

For the molecule `CSc1ccccc1C(=O)Nc1ccc(Sc2nc(Nc3cc(C)[nH]n3)cc(N3CCC3)n2)cc1` [Compound I-23], the Ki is 1.4 nM on Aurora-2 (Aurora A) and 6 nM on Aurora-1 (Aurora B) (setting [3]).

In the case of `Cc1cc(Nc2cc(N3CCC3)nc(Sc3ccc(NC(=O)c4ccccc4Cl)nc3)n2)[nH]n1` [Compound I-24], the Ki at Aurora-2 (Aurora A) (setting [4]) is 1 nM; at Aurora-1 (Aurora B) (setting [3]), 18 nM; at FLT-3, 700 nM; on JAK-2, 660 nM.

Values taken from patent US8557833B2, “Aminopyrimidines useful as kinase inhibitors” (priority 2005, dated 2013).
